Test system: NPC-TW02 and NPC-TW02/TP cells
Experiment: cytotoxicity assay with 5′-DFUR, apoptosis by annexin V flow cytometry
Type: cell-based
Conditions: TP over-expression, 72 hours
Experimental: Refer to FIG. 1A and FIG. 1B. A cell line of nasopharyngeal cancer NPC-TW02/TP is established to stably express exogenous TP. First, the TP-expression carrier pcDNA3.1-PT is transfected to the cell line. Next, the cell line is screened and then cultivated in a culture solution having 500 μg/ml G418. Next is performed a cytotoxicity assay, wherein NPC-TW02 and NPC-TW02/TP are respectively processed with 5′-DFUR (Sigma-Aldrich, St. Louis, Mo., USA). Next, the cell lines are further cultivated for 72 hours. Next, the cell membranes are everted to expose phosphatidylserine. Then, phosphatidylserine is analyzed with the Vybrant® Apoptosis Assay Kit #2 (a product of Invitrogen).
Firstly, 2×10^5 cells are taken out and washed with PBS. Next, a buffer solution (10 mM HEPES, 140 mM NaCl, 2.5 mM CaCl2, pH 7.4) is used to adjust the solution to have a cell concentration of 2×10^6/mL. Next, 5 μl Alexa Fluor® 488 annexin V is added into 100 μl cell suspension, and then the cell suspension reacts at an ambient temperature for 15 minutes. Next, the cell specimens (10000 events) are analyzed with a flow cytometer (a product of Becton Dickinson), as shown in FIG. 3. […] Then, phosphatidylserine is analyzed with the Vybrant® Apoptosis Assay Kit #2 (a product of Invitrogen).

C[C@H]1O[C@@H](n2cc(F)c(=O)[nH]c2=O)[C@H](O)[C@@H]1O [5′-DFUR, 5-fluoro-5′-deoxyuridine]
sensitivity of TP over-expressing nasopharyngeal cancer cells / induction of apoptosis: can induce the apoptosis of cancer cells

— patent US8110675B2, “TP expression-inhibiting compound and siRNA sequence thereof” (Chang Gung University, priority 2009, dated 2012)
